Results taken from patent US20010014454A1, “NOVEL METAL COMPLEXES” (priority 2000, published 2001).

T1: G-CSF receptor (Mus musculus, UniProt P40223)
T1 construct: they express endogenous G-CSF receptors; endogenous in cells; host or cells: NFS60 murine myeloid cells with a G-CSF-responsive luciferase reporter
T1 sequence (P40223 26-837): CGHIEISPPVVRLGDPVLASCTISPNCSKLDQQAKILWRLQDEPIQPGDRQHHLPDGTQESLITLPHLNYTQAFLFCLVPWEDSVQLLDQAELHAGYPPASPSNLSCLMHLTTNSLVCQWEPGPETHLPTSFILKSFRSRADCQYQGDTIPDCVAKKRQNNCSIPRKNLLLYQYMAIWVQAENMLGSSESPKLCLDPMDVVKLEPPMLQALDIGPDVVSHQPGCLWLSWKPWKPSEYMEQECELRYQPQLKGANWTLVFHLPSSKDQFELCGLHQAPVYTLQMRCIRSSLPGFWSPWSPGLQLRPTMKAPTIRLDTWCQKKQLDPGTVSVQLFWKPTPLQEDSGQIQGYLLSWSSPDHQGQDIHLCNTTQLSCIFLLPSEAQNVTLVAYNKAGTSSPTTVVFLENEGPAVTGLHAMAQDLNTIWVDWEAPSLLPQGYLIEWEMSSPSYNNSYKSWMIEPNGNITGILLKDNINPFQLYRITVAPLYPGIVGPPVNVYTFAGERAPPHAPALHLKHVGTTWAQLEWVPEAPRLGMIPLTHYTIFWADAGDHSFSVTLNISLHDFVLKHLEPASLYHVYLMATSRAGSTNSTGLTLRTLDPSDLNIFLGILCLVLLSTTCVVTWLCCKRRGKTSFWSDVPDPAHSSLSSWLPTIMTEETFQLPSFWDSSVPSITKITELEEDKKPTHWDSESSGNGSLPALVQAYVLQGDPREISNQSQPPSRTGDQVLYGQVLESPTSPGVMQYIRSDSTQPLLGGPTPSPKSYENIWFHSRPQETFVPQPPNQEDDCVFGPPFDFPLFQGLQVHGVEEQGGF


Key:
[1] = system: peripheral blood neutrophil and monocyte count; assay: In vivo evaluation of peripheral blood neutrophil and monocyte count in the mouse
Procedure: Compounds of this invention are also tested for activity in the following assays: CFU-G assay (an example of which is described in King A G, Talmadge J., Badger A M, Pelus L M. Regulation of colony stimulating activity production from bone marrow stromal cells by the hematoregulatory peptide, HP-5. Exp. Hematol. 20:223-228, 1992) and in vivo evaluation of peripheral blood neutrophil and monocyte count in the mouse (an example of which is described in Pelus, L. M.; King, A. G.; Broxmeyer, H. E.; DeMarsh, P. L.; Petteway, S. R.; Bhatnagar, P. K., In vivo modulation of hematopoiesis by a novel hematoregulatory peptide Exp-Hematol. 1994 22(3): 239-47). In order to confirm the requirement for zinc(II) chelation, the above CFU-G assay was also conducted in the presence of EDTA.

G-CSF/Fc fusion protein = assay: Isothermal titration microcalorimetry; format: binding; conditions: in the presence of zinc
Procedure: Zinc-mediated affinity of compounds from this invention for dimeric cell-surface receptors (specifically the G-CSF receptor) was measured by isothermal titration microcalorimetry experiments. Titration microcalorimetry detects binding as heat originating from the intrinsic bond forming enthalpy change. In this assay, the compounds were titrated first against zinc(II) alone. In a separate experiment, the compounds were then assayed in the presence of zinc and a dimeric cell-surface receptor/Fc fusion protein (a G-CSF/Fc fusion protein), which contained the extracellular domain of the receptor presented in a dimeric form due to the Fc component.

G-CSF receptor [2] = biological target: T1, G-CSF receptor; assay: Luciferase reporter gene assay in G-CSF-responsive NFS60 cells; format: cell-based, murine; conditions: absence of zinc
Procedure: Activity of compound 1a is below the threshold of 150% over background. The study was performed as a Luciferase assay configured on the G-CSF-responsive NFS60 cell line as described in Tian et al., Science 281, 257-259 (1998). The experiments shown in FIGS. 2-8 used the same NFS60 cell line.
Compounds of the present invention are tested for potency as agonist of a dimeric cell-surface receptor in a Luciferase reporter gene assay such as described in Tian et al., Science 281. 257-259 (1998). For example, for G-CSF NFS60 cells (Holmes, et al., Proc. Natl. Acad. Sci. USA 82: 6687-6691 (1985)) are selected because they express endogenous G-CSF receptors closely matching the pattern of STAT (signal transducers and activators of transcription) activation observed in primary murine and human bone marrow cells.

G-CSF receptor [3] = biological target: T1, G-CSF receptor; assay: Luciferase assay and EDTA (NFS60 cells, with or without metal chlorides); format: cell-based, murine; conditions: for agonist activity in the presence of EDTA: in the presence of EDTA (FIGS. 3 and 4)
Procedure: FIG. 3 is an analysis of the effect of ethylenediaminetetraacetic acid (as used herein—EDTA) on the activity of Compound 1a (from Example 1) in NFS60 cells. Shown are luciferase response curves of Compound 1a at the indicated concentrations and in the presence of various concentrations of EDTA. […] The media in this assay contained a small amount (1-5 uM) of zinc(II).
FIGS. 7 and 8 show an analysis of the effect of metal chlorides on the EDTA depleted activity of Compound 1a on NFS60 cells. Shown are luciferase response curves as effected by the indicated metal chlorides. […] None of the other metals tested could overcome the inhibitory effect of EDTA.
In order to determine the requisiteness of zinc chelation of small organic molecules to agonist activity at dimeric cell-surface receptors, the above luciferase assay was performed on the G-CSF receptor in the presence of EDTA. EDTA is a strong metal chelator and had as it only effect, the removal of zinc from the ligand-receptor interaction.

| affinity for the fusion protein construct (G-CSF/Fc fusion protein) | luciferase activity over background (G-CSF receptor [2]) [%] | effect of EDTA on luciferase activity (G-CSF receptor [3]; EDTA at 1.2 millimolar, media contained 1-5 uM zinc(II)) | agonist activity in the presence of EDTA (G-CSF receptor [3]) | effect of EDTA on luciferase activity (G-CSF receptor [3]; EDTA at both 1.2 and 5 millimolar) | Molecule | peripheral blood neutrophil and monocyte count [1] | effect of metal chlorides on the EDTA depleted luciferase activity (G-CSF receptor [3]; Compound 1a, 50 micromolar EDTA, plus metal chlorides) |
| --- | --- | --- | --- | --- | --- | --- | --- |
| submicromolar | – | – | – | – | Cc1ccc2nc(N=C3NC4(c5ccccn5)NC(=Nc5nc6ccccc6[nH]5)NC4(c4ccccn4)N3)[nH]c2c1.O=C(O)C(F)(F)F.O=C(O)C(F)(F)F (stereo not shown) [Compound 3a, 5-(2-benzimidazolylimino)-2-[(5-methyl-2-benzimidazolyl)imino]-3a,6a-bis(2-pyridyl)-1,2,3,3a,4,5,6,6a-octahydroimidazo[4,5-d]imidazole bis(trifluoroacetate) salt] | elevation | – |
| submicromolar | < 150 | antagonized | abrogated | – | c1ccc(C23NC(=Nc4nc5ccccc5[nH]4)NC2(c2ccccn2)NC(=Nc2nc4ccccc4[nH]2)N3)nc1 (stereo not shown) [Compound 1a, 2,5-Bis[2-benzimidazolylimino]-3a,6a-bis(2-pyridyl)-1,2,3,3a,4,5,6,6a-octahydroimidazo[4,5-d]imidazole] | elevation | Only zinc (II) at concentrations 0.5-10 micromolar can overcome the inhibition |
| – | – | – | not mediated by metal ions | little effect | recombinant G-CSF: the natural ligand (i.e. G-CSF or recombinant G-CSF) of the G-CSF receptor (protein, UniProt P09919 31-207, looked up) Granulocyte …: TPLGPASSLPQSFLLKCLEQVRKIQGDGAALQEKLVSECATYKLCHPEELVLLGHSLGIPWAPLSSCPSQALQLAGCLSQLHSGLFLYQGLLQALEGISPELGPTLDTLQLDVADFATTIWQQMEELGMAPALQPTQGAMPAFASAFQRRAGGVLVASHLQSFLEVSYRVLRHLAQP | – | – |
